Measurements reported in PMC8069832, “New Amides and Phosphoramidates Containing Selenium: Studies on Their Cytotoxicity and Antioxidant Activities in Breast Cancer” (Antioxidants, 2021).
Read-outs that look alike come from different tables or passages of the source.

Experiments:
[1] = MTT cytotoxicity in nonmalignant bronchial epithelium cells; format: cell-based; details: human
Method in brief: (§1)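 184B5 cells grown in supplemented DMEM/F12, BEAS-2B in RPMI with 10% FBS. 1 × 10^4 cells/well exposed to increasing compound concentrations for 48 h at 37 °C, 5% CO2, then MTT 4 h and formazan dissolved in DMSO. At least 3 independent experiments in quadruplicate; cisplatin as reference.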

BEAS-2B = test: as above; format: cell-based; details: for GI50 / IC (TGI): Homo sapiens, BEAS-2B, 48 h; for GI50: read-out: GI50 BEAS-2B; for IC (TGI): read-out: TGI BEAS-2B; for Selectivity index (SI) = GI50 (BEAS-2B)/GI50 (HTB-54): lung
Method in brief: as §1

CCRF-CEM = test: cells; details: Homo sapiens, 48 h; for activity at 10 µM: read-out: Cell growth (%) CCRF-CEM; for GI50: read-out: GI50 CCRF-CEM; for CC50: read-out: LC50 CCRF-CEM; for IC (TGI): read-out: TGI CCRF-CEM
MCF-7 [2] = test: Autophagy and caspase inhibition assays (wortmannin, Z-VAD-FMK pretreatment); format: cell-based, human; details: I.1f 80 µM 72 h, I.2f 30 µM 24 h, II.2d 20 µM 24 h; for Compound-induced cell death after preincubation with wortmannin: 100 nM wortmannin 1 h; for Compound-induced cell death after preincubation with Z-VAD-FMK: 50 µM Z-VAD-FMK 1 h
Description: For autophagy and caspase inhibition assays, cells were pretreated with 100 nM of autophagy inhibitor (wortmannin, Santa Cruz) and 50 µM of pan-caspase inhibitor (Z-VAD-FMK, BD Pharmingen) for 1 h. The cells were treated with the compounds I.2f (30 µM) and II.2d (20 µM) for 24 h and I.1f (80 µM) for 72 h. Samples were processed following the same methodology stated above. DMSO was used as a negative control for both inhibitors.
Apoptosis and autophagy are considered as two recognized pathways for anticancer agents due to their effects on cell survival. In the next step, in order to investigate whether the cell death pathway is related to apoptosis or autophagy, we explored the effect of pre-treated cells with either an autophagy inhibitor (wortmannin) or a pan-caspase inhibitor (Z-VAD-FMK). According to the previous results, determinations were performed after treatment with 80 μM of I.1f for 72 h, 30 μM of I.2f for 24 h and 20 μM of II.2d for 24 h.

[3] = MTT cytotoxicity in nonmalignant mammary gland derived cells; format: cell-based; details: human
Method in brief: as §1

184B5 = test: as above; format: cell-based; details: for GI50 / IC (TGI): Homo sapiens; for GI50: read-out: GI50 184B5; for IC (TGI): read-out: TGI 184B5
Method in brief: as §1

MCF-7 [4] = test: Western blot of autophagy and apoptosis markers; format: cell-based, human; details: for Beclin-1 and LC3B levels / Phosphorylation of AMPK and JNK / SQSTM1/p62 (autophagic flux): I.1f 80 µM 48 h, I.2f 30 µM 24 h
MCF-7 [5] = test: Cell cycle phase distribution by flow cytometry; format: cell-based, human; details: 24 h, different doses
Description: For the MCF-7 cell line, both cell cycle analysis and the cell death percentage were determined using the Apo-Direct kit (BD Pharmingen) based on the TUNEL technique, according to the manufacturer’s instructions. Cells were seeded in 25 cm^2 flasks (3 × 10^6 for 24 h of treatment, 2 × 10^6 for 48 h and 10^6 for 72 h) treated with DMSO (negative control), 6 µM of camptothecin (positive control) and different concentrations of I.1f, I.2f and II.2d.
After treatment, cells were collected and fixed with 1% paraformaldehyde (Sigma) in PBS (pH = 7.4), incubated in ice for 40 min, collected by centrifugation, washed with PBS and incubated with 70% ethanol for 30 min at −20 °C. After fixation, cells were washed twice with PBS and incubated for 1 h at 37 °C with FITC dUTP-DNA Labeling Solution. Cells were then rinsed and incubated in the dark for 30 min at room temperature with PI/RNase staining buffer before being analyzed by flow cytometry (Coulter Epics XL, Beckman Coulter Flow cytometer). Then, cells were treated with compounds I.1f (80 µM), I.2f (30 µM) and II.2d (5 µM) at different times (from 8 to 72 h) following the same methodology.
Apoptosis and cell cycle arrest are typical mechanisms of action for many anticancer drugs, including selenocompounds [34, 35, 36]. In a first approach, the effect of the selected compounds on cell cycle progression and the induction of apoptosis was studied in MCF-7 cell cultures. Analyses were performed by flow cytometry using the Apo-Direct kit, based on the TUNEL technique under the conditions described by the manufacturer. The cells were treated with the corresponding compound at different concentrations and time points. Camptothecin was used as a positive control at 6 µM.
To further understand the mechanism of action of these potent compounds, their effects on cell cycle distribution in MCF-7 were studied by flow cytometry. This assay was carried out with different concentrations (Figure 6) and different time points (Figure 7).

MCF-7 [6] = test: cells; details: Homo sapiens, MCF7, 48 h; for activity at 10 µM: read-out: Cell growth (%) MCF-7; for CC50: read-out: LC50 MCF-7; for IC (TGI): read-out: TGI MCF-7; for GI50: read-out: GI50 MCF-7, 48 h, average ± SEM
[7] = 184B5, nonmalignant cells, 48 h
[8] = nonmalignant cells, 48 h, read-out: LC50 BEAS-2B
[9] = nonmalignant cells, 48 h, read-out: LC50 184B5

With `O=C(Nc1ccc([Se][Se]c2ccc(NC(=O)c3ccc(C(F)(F)F)cc3)cc2)cc1)c1ccc(C(F)(F)F)cc1` [I.1f] the LC50 (50% lethal concentration) at 48 h [1] was 72.9 µM, the GI50 (BEAS-2B; nonmalignant cells) was 10.7 µM and the IC (TGI) (BEAS-2B; nonmalignant cells) was 41.8 µM. For the same compound, the “Selectivity index (SI) = GI50 (BEAS-2B)/GI50 (HTB-54)” value (“Selectivity index … (HTB-54)” for short) (BEAS-2B) was 0.42, the activity at 10 µM (CCRF-CEM) was 36.5% and the GI50 (CCRF-CEM) was 4.7 ± 0.7 µM. The CC50 (CCRF-CEM) was 79.2 ± 4.1 µM, the IC (TGI) (CCRF-CEM) was 31.7 ± 1.8 µM and the “Compound-induced cell death after preincubation with wortmannin” value (MCF-7 [2]) was “prevented cell death”. The “Compound-induced cell death after preincubation with Z-VAD-FMK” value (MCF-7 [2]) was “did not”, the LC50 (50% lethal concentration) at 48 h [3] was 92.3 µM and the GI50 (184B5; [7]) was 6.59 µM. The IC (TGI) (184B5; [7]) was 44 µM, the “Beclin-1 and LC3B levels” value (MCF-7 [4]) was “increased levels” and the “Phosphorylation of AMPK and JNK” value (MCF-7 [4]) was “induced JNK and AMPK phosphorylation”. The “SQSTM1/p62 (autophagic flux)” value (MCF-7 [4]) was “downregulated”, the “Cell cycle phase distribution” value (MCF-7 [5]) was “increased the number of cells in the S phase dose-dependently” and the activity at 10 µM (MCF-7 [6]) was 9.1%. The CC50 (MCF-7 [6]) was 54.6 ± 0.7 µM and the IC (TGI) (MCF-7 [6]) was 13 ± 0.3 µM.

With `N#C[Se]c1ccc(NC(=O)c2ccc(C(F)(F)F)cc2)cc1` [I.2f] the LC50 (50% lethal concentration) [1, 8] was 73.2 µM, the GI50 (BEAS-2B; nonmalignant cells) was 20.8 µM and the IC (TGI) (BEAS-2B; nonmalignant cells) was 47 µM. For the same compound, the “Selectivity index … (HTB-54)” value (BEAS-2B) was 0.70, the activity at 10 µM (CCRF-CEM) was 54.6% and the GI50 (CCRF-CEM) was 7.3 ± 0.5 µM. The CC50 (CCRF-CEM) was > 100 µM, the IC (TGI) (CCRF-CEM) was > 100 µM and the “Compound-induced cell death after preincubation with wortmannin” value (MCF-7 [2]) was “prevented cell death”. The “Compound-induced cell death after preincubation with Z-VAD-FMK” value (MCF-7 [2]) was “did not”, the LC50 (50% lethal concentration) [3, 9] was > 100 µM and the GI50 (184B5; [7]) was 16.6 µM. For the same compound, the IC (TGI) (184B5; [7]) was > 100 µM, the “Beclin-1 and LC3B levels” value (MCF-7 [4]) was “increased levels” and the “Phosphorylation of AMPK and JNK” value (MCF-7 [4]) was “induced JNK and AMPK phosphorylation”. For the same compound, the “SQSTM1/p62 (autophagic flux)” value (MCF-7 [4]) was “downregulated”, the “Cell cycle phase distribution” value (MCF-7 [5]) was “increased the number of cells in the S phase dose-dependently” and the activity at 10 µM (MCF-7 [6]) was 44.8%. The GI50 (MCF-7 [6]) was < 1 µM, the CC50 (MCF-7 [6]) was 42.2 ± 0.8 µM and the IC (TGI) (MCF-7 [6]) was 6.2 ± 0.4 µM.

With `CCOP(=O)(Nc1ccc([Se]C#N)cc1)OCC` [II.2d] the LC50 (50% lethal concentration) at 48 h [1, 8] was 8.3 µM, the GI50 (BEAS-2B) was 4.65 µM and the IC (TGI) (BEAS-2B) was 6.59 µM. The “Selectivity index … (HTB-54)” value (BEAS-2B) was 2.85, the activity at 10 µM (CCRF-CEM) was -87.4% and the GI50 (CCRF-CEM) was 0.2 µM. For the same compound, the CC50 (CCRF-CEM) was 0.9 ± 0.1 µM, the IC (TGI) (CCRF-CEM) was 0.5 µM and the “Compound-induced cell death after preincubation with wortmannin” value (MCF-7 [2]) was “could not prevent cell death”. For the same compound, the “Compound-induced cell death after preincubation with Z-VAD-FMK” value (MCF-7 [2]) was “prevented it”, the CC50 at 48 h [3, 9] was 8.93 µM and the GI50 (184B5; 184B5, 48 h) was 5.7 µM. The IC (TGI) (184B5; 184B5, 48 h) was 7.31 µM, the “Selectivity index (SI) = GI50 (184B5)/GI50 (MCF-7)” value (184B5; breast) was 6.33 and the “BAX, p21, p53 levels” value (MCF-7 [4]) was “Significantly increased levels”. For the same compound, the Bcl-2 levels (MCF-7 [4]) was “decreased levels”, the “Cell cycle phase distribution” value (MCF-7 [5]) was “arrested them in G0/G1 phase” and the activity at 10 µM (MCF-7 [6]) was -17.2%. The GI50 (MCF-7 [6]) was < 1 µM, the CC50 (MCF-7 [6]) was 8.4 ± 0.1 µM and the IC (TGI) (MCF-7 [6]) was 4.1 ± 0.1 µM.
